Patent US20100104669A1, “Method for preparing an aqueous solution containing triterpenic acid, aqueous solution containing triterpenic acid, and use thereof” (priority 2008, published 2010)

What was measured:
[1] = triterpenic acid content of basic aqueous solution (trisodium phosphate extraction, Example 1); assay type: physicochemical; conditions: water with trisodium phosphate, extracted at 120° C. and >2 bar, cooled to room temperature, filtered through 0.22 μm filter
Method: Dried annual shoots of mistletoe were extracted with n-heptane at 120° C. and >2 bar pressure. The precipitate obtained upon cooling of the extraction agent was composed of more than 60% oleanolic acid and more than 3% betulinic acid. The triterpenic acid-rich powder thus obtained was extracted with water in the presence of trisodium phosphate at 120° C. and >2 bar pressure to produce a supersaturated basic solution.
The basic triterpenoid-rich solution, cooled to room temperature and filtered through a 0.22 μm filter, contained more than 80 μg/mL oleanolic acid and more than 8 μg/mL betulinic acid. The basic solution thus prepared was then adjusted to pH 7.4 using an aqueous phosphoric acid solution, in the presence of 1.6 μg/mL polysaccharides which had been obtained from mistletoe berries. The extent of dilution and the solvent quantities were selected in such a way that the salt concentration of the neutralized triterpenic acid-rich solution was between 5 and 140 mM.

[2] = triterpenic acid content of basic aqueous solution with cyclodextrins (Example 4); assay type: physicochemical; conditions: water with trisodium phosphate (10 mM) and 2 mg/mL cyclodextrins, 120° C. and >2 bar
Method: The triterpenoid-rich powder described in Example 1 was extracted with water in the presence of trisodium phosphate (10 mM) and 2 mg/mL cyclodextrins at 120° C. and >2 bar.
The basic triterpenic acid-rich solution contained more than 100 μg/mL oleanolic acid and more than 8 μg/mL betulinic acid. The basic solution thus prepared was then adjusted to pH 7.4 using an aqueous phosphoric acid solution. The extent of dilution and the solvent quantities were selected in such away that the salt concentration of the neutralized triterpenic acid-rich solution was between 5 and 140 mM.

content in basic triterpenoid-rich solution [1]: more than 80 μg/mL
content in basic triterpenic acid-rich solution [2]: more than 100 μg/mL
Compound: CC1(C)CC[C@]2(C(=O)O)CC[C@]3(C)C(=CC[C@@H]4[C@@]5(C)CC[C@H](O)C(C)(C)[C@@H]5CC[C@]43C)[C@@H]2C1 [oleanolic acid]
